Data taken from US10647673B2, “Acetophenone compound, preparation method thereof, and application thereof in fatty liver prevention and treatment” (Nanjing Bioenergy Medicine Science & Technology Co., Ltd., priority 2017, dated 2020).

Tests used:
Format in all cases: in vivo
[1] = tested on: fatty liver of the SD rats; assay: Pathological sections and grading of fatty liver of SD rats; details: compounds 80 mg/kg, Sim 10 mg/kg, OCA 10 mg/kg
Protocol: (§1) 500 g of lard oil was taken, placed in a container, and heated to melt. When the temperature rose to 100° C., it was added with 200 g of cholesterol to dissolve completely, and then further added with 20 g of propylthiouracil. The resulted mixture was stirred well, and added with 500 ml of Tween 80 after dissolution, resulting in an oil phase. At the same time, 600 mL of distilled water and 400 mL of 1,2-propanediol were taken and heated to 60° C. in a water bath, then were added with 40 g of sodium deoxycholate. The resulted mixture was stirred well until realizing complete dissolution, so as to give an aqueous phase. The aqueous phase was added into the oil phase and mixed well to give a lipid emulsion. The lipid emulsion was heated in a water bath of 37° C. before intragastric administration to animals.
(§2) An appropriate amount of pharmaceutical was weighed, added with 0.5% CMC-Na, and mixed homogeneously by grinding. There are groups for Compound 01 (80 mg/kg), Compound 02 (80 mg/kg), Compound 03 (80 mg/kg), Compound 04 (80 mg/kg), Compound 05 (80 mg/kg), Compound 06 (80 mg)/kg), Compound 07 (80 mg/kg), Compound 08 (80 mg/kg), Compound 09 (80 mg/kg), Compound 10 (80 mg/kg), Compound 11 (80 mg/kg), Compound 12 (80 mg/kg), Compound 13 (80 mg/kg), Compound 14 (80 mg/kg), Compound 15 (80 mg/kg), Compound 16 (80 mg/kg), Compound 17 (80 mg/kg), Compound 18 (80 mg/kg), Compound 19 (80 mg/kg), Compound 20 (80 mg/kg), Compound 21 (80 mg/kg), and Compound 22 (80 mg/kg).
(§3) Male SD rats weighing 180-200 g were fed adaptively for 7 days. Based on body weight, 10 animals were used as control and the remaining animals were intragastrically administered with the lipid emulsion every day, 1 ml/100 g body weight for 14 days. After fasting for 12 hours, 1 mL of blood was collected from the orbits of the animals, and was determined by Hitachi Automatic Biochemical Analyzer 7080 for serum cholesterol (CHO), triglyceride (TG), low density lipoprotein (LDL-C) and high density lipoprotein (HDL-C).
(§4) The modeled rats were continued with the intragastric administration of the lipid emulsion. At the same time, the pharmaceutical-administered groups were administrated with a corresponding dose of pharmaceuticals, while the Model group was administrated with an equal volume of solvent. The pharmaceutical-administered groups were administrated with the lipid emulsion in the morning, and with the pharmaceuticals in the afternoon. The animals were measured for the body weight once a week, and were observed. After 14 days of continuous administration, 1 mL of blood was collected from the orbits, and was determined for the contents of triglyceride, cholesterol, low density lipoprotein and high density lipoprotein in blood serum.

[2] = tested on: Fatty Liver Diseases of SD Rats; assay: Liver functions of lipid-emulsion SD rats after administration for 4 weeks; design: unit not given here; details: compounds 80 mg/kg, Obeticholic Acid 10 mg/kg
[3] = tested on: Fatty Liver Diseases of SD Rats; assay: Blood serum lipids in SD rats given lipid emulsion (fatty liver model); design: unit not given here; details: blood serum after 14 days of continuous administration; compounds 80 mg/kg, Obeticholic Acid 10 mg/kg, intragastric; lipid emulsion continued
Protocol: as §1, §2, §3, §4

[4] = tested on: nutritive obesity C57 mice; assay: Weight loss experiment in nutritive obesity C57 mice; design: key to body weight of mice: body weight in g; details: high-fat diet, orlistat 40 mg/kg, Compounds 13 and 14 80 mg/kg intragastric, x ± s, n = 6, in g (unit assumed)
Excerpt: C57 mice, male, 18-20 g of body weight. The mice were randomly divided into Control group, Model group, Orlistat group, Compound 13 group and Compound 14 group, with 6 mice in each group.
(§5) appropriate amounts of orlistat, Compound 13 and Compound 14 were weighed respectively, added with 0.5% CMC-Na and grinded to dissolve.
The mice in Control group were fed with normal diet, and the other mice were fed with high-fat diet. All of the mice had free access to water. After one week of feeding, the pharmaceuticals were intragastrically administrated. The dose was 40 mg/kg body weight for orlistat, 80 mg/kg for Compounds 13 and 14. The body weight of the mice was weighed every week during the experiment which lasted for 28 days.

ob/ob mice = assay: Weight loss experiment in ob/ob mice; details: orlistat 40 mg/kg, other pharmaceuticals 80 mg/kg intragastric, x ± s, n = 6, in g (unit assumed)
Excerpt: […] ob/ob mice, male, 18-20 g of body weight, fed adaptively for one week before use. The mice were randomly divided into Control group, Model group, Orlistat group, Compound 13 group and Compound 14 group, with 6 mice in each group.
as §5
After feeding for one week, the mice were intragastrically administrated with the pharmaceuticals except the mice of Control group. The dose was 40 mg/kg body weight for orlistat, 80 mg/kg for the other pharmaceuticals. The body weight of the mice was weighed every week during the experiment which lasted for 28 days.

Structure (SMILES)	Pathological grading: Steatotic hepatocytes ([1]; animal 1)	Pathological grading: Steatotic hepatocytes ([1]; animal 2)	Pathological grading: Steatotic hepatocytes ([1]; animal 3)	Pathological grading: Steatotic hepatocytes ([1]; animal 4)	Pathological grading: Steatotic hepatocytes ([1]; animal 5)	ALP [2]	ALT [2]	AST [2]	TBIL [2]	CHO (serum cholesterol) [3]	HDL-C (high density lipoprotein) [3]	LDL-C (low density lipoprotein) [3]	TG (triglyceride) [3]	other results
CC[C@H]1[C@@H](O)[C@@H]2[C@H](CC[C@]3(C)[C@@H]([C@H](C)CCC(=O)O)CC[C@@H]23)[C@@]2(C)CC[C@@H](O)C[C@@H]12 [Obeticholic Acid, Obeticholic acid, reference compound]	++ (45-65% of hepatocytes undergoing steatosis)	++ (45-65% of hepatocytes undergoing steatosis)	++ (45-65% of hepatocytes undergoing steatosis)	+++ (65-85% or more of hepatocytes undergoing steatosis)	++ (45-65% of hepatocytes undergoing steatosis)	999.60 ± 354.29	136.40 ± 62.68	248.20 ± 156.61	4.06 ± 1.40	4.74 ± 0.34	1.68 ± 0.22	2.85 ± 1.00	0.52 ± 0.06	–
Cc1ccc(C)c(OCCCC(C)(C)C(=O)NCC(=O)c2ccc(OC(=O)c3cccnc3)c(O)c2)c1 [Compound 22]	+ (25-45% of hepatocytes undergoing steatosis)	+ (25-45% of hepatocytes undergoing steatosis)	++ (45-65% of hepatocytes undergoing steatosis)	+ (25-45% of hepatocytes undergoing steatosis)	+ (25-45% of hepatocytes undergoing steatosis)	874.33 ± 251.66	58.00 ± 2.55	180.60 ± 27.19	2.97 ± 1.53	4.36 ± 1.08	1.47 ± 0.51	2.87 ± 1.25	0.57 ± 0.27	–
Cc1ccc(C)c(OCCCC(C)(C)C(=O)Nc2ccc(C(=O)CNC(=O)c3cccnc3)cc2)c1 [Compound 12]	0	–	0	0	–	994.50 ± 150.68	54.00 ± 5.72	137.75 ± 31.74	3.25 ± 2.11	4.03 ± 0.47	1.92 ± 0.11	2.16 ± 0.05	0.33 ± 0.05	Pathological grading: Infiltration of inflammatory cells ([1]; animal 1): 0; Pathological grading: Infiltration of inflammatory cells ([1]; animal 3): 0; Pathological grading: Infiltration of inflammatory cells ([1]; animal 5): 0
CCCCCCCCCCC[C@@H](C[C@@H]1OC(=O)[C@H]1CCCCCC)OC(=O)[C@H](CC(C)C)NC=O [Orlistat, reference compound]	–	–	–	–	–	–	–	–	–	–	–	–	–	body weight of mice ([4]; Experiment Day 0): 18.28 ± 0.65; body weight of mice ([4]; Experiment Day 7): 20.29 ± 0.63; body weight of mice ([4]; Experiment Day 14): 21.39 ± 0.70; body weight of mice ([4]; Experiment Day 21): 22.51 ± 0.73; body weight of mice ([4]; Experiment Day 28): 24.47 ± 0.79; body weight of ob/ob mice (ob/ob mice; Experiment Day 0): 20.53 ± 0.50; body weight of ob/ob mice (ob/ob mice; Experiment Day 7): 22.82 ± 1.79; body weight of ob/ob mice (ob/ob mice; Experiment Day 14): 23.98 ± 1.85; body weight of ob/ob mice (ob/ob mice; Experiment Day 21): 26.86 ± 1.99; body weight of ob/ob mice (ob/ob mice; Experiment Day 28): 31.23 ± 2.31
CC(=O)c1ccc(NC(=O)C(C)(C)CCCOc2cc(C)ccc2C)cc1 [Compound 02]	+ (25-45% of hepatocytes undergoing steatosis)	+ (25-45% of hepatocytes undergoing steatosis)	++ (45-65% of hepatocytes undergoing steatosis)	+ (25-45% of hepatocytes undergoing steatosis)	++ (45-65% of hepatocytes undergoing steatosis)	1001.52 ± 273.34	62.52 ± 13.24	187.00 ± 36.44	1.98 ± 0.81	4.29 ± 0.65	1.74 ± 0.29	2.18 ± 0.71	0.51 ± 0.19	–
Cc1ccc(C)c(OCCCC(C)(C)C(=O)NCC(=O)c2ccc(O)c(O)c2)c1 [Compound 21]	+ (25-45% of hepatocytes undergoing steatosis)	0	+ (25-45% of hepatocytes undergoing steatosis)	+ (25-45% of hepatocytes undergoing steatosis)	+ (25-45% of hepatocytes undergoing steatosis)	1074.00 ± 181.32	65.6 ± 27.20	184.40 ± 18.68	3.23 ± 1.35	4.37 ± 0.62	1.99 ± 0.44	2.09 ± 0.68	0.80 ± 0.13	Pathological grading: Infiltration of inflammatory cells ([1]; animal 4): 0
